In patent US5624906A, “Oral hygiene compositions comprising heteroatom containing alkyl aldonamide compounds” (Lever Brothers Company, Division of Conopco, Inc., priority 1994, dated 1997):
Read-outs that look alike come from different tables or passages of the source.

Assays:
[1] = Clarity of prototype surfactant compositions (Example 87); format: physicochemical; settings: room temperature; for Appearance: 6 months
Method: The prototype shampoo composition is as follows:
(§1) The above formulations were prepared by admixing the above ingredients in listed order and heating the mixture to about 80° C. with rapid stirring. The mixture was then cooled to about 40° C., placed in a clear jar and stored at room temperature for 6 months.

Krafft point = format: physicochemical; settings: for Krafft Point (0.1%): 0.1% in water; for Krafft Point (1.0%): 1.0% in water
Method: The temperature at and above which surfactants begin to form micelles instead of precipitates is referred to as the Krafft point (Tk) and at this temperature the solubility of a surfactant becomes equal to its CMC (numerical value at which micelles are formed).
The Krafft point was measured by preparing 650 ml of a 0.1% or 1.0% dispersion of aldonamide in water by weight. If the surfactant was soluble at room temperature, the solution was slowly cooled to 0° C. […] (less than zero). If it precipitated out of solution, the temperature at which precipitation occurs was taken as the Krafft point.
If the surfactant was insoluble at room temperature, the dispersion was slowly heated until the solution became homogeneous. It was then slowly cooled until precipitation occurred. The temperature at which the surfactant precipitates out of solution upon cooling was taken as the Krafft point.

[2] = Ross-Miles foam height (Examples 81-84); format: physicochemical; settings: for Foam Height Initial / Foam Height Final: 0.1% aldonamide, 40° C. (or 5-10° C. above Krafft point), 0 ppm hardness; for Foam Height Final: after 10 minutes; for Solubility: 0.1% in water
Method: In the Ross-Miles method, 200 mL of a surfactant solution contained in a pipette of specified dimensions with a 2.9-mm-i.d. orifice is allowed to fall 90 cm onto 50 mL of the same solution contained in a cylindrical vessel maintained at a given temperature by means of a water jacket. The height of the foam produced in the cylindrical vessel is read immediately after all the solution has run out of the pipette and then again after a given amount of time.
Using this method, the foam production (initial foam height in mm) and foam stability (final foam height after 10 minutes in mm) were measured at 0.1% aldonamide concentration, 40° C. and 0 ppm (parts per million) hardness.

[3] = Viscosity of sodium lauryl sulfate compositions (Example 88); format: physicochemical; settings: for Viscosity: 22° C.
Method: The prototype surfactant composition is as follows:
as §1
It is well known that the viscosity of a liquid composition comprising of anionic surfactant can be modified by the addition of inorganic salts, such as sodium chloride. However, in the absence of an organic modifier, high levels of salt may be necessary to achieve the required viscosity which may lead to problems of storage at cold temperature or even salting out certain ingredients. In practice, however, the viscosity of a liquid composition is modified by the simultaneous addition of thickener and small amounts of inorganic salt (viscosity cobuilder). The combined effect is greater than either one alone. The viscosity of the above prototype surfactant composition comprising various amounts of heteroatom containing alkyl aldonamide compound is as follows: […]

[4] = Effectiveness of adsorption (surface excess concentration, Gibbs equation); format: physicochemical; settings: 60 °C, estimated by extrapolating a linear line
Description: The surface excess concentration at surface saturation (Γmax) is defined as a measure of the effectiveness of surfactant adsorption at the water/air interface and represents the maximum value to which adsorption can be obtained. Effectiveness of adsorption is related to the interfacial area occupied by the surfactant molecule. The smaller the effective cross-sectional area of a surfactant at the interface, the greater its effectiveness of adsorption. The effectiveness of adsorption is an important factor in determining surfactant properties such as detergency, foaming, wetting or emulsification. While not wishing to be bound by theory, it is believed that surfactants that absorb effectively at the interface tend have tightly packed coherent interfacial films and often provide better surfactant benefits than those with loosely packed noncoherent films. The effectiveness of adsorption of C8 /C10 oxypropyl D-gluconamide was determined using the Gibbs equation given as: […]
(∂γ/∂log[Conc])T

[5] = cited from earlier work
[6] = Effectiveness in reducing surface tension (surface pressure at CMC); format: physicochemical; settings: 60 °C, estimated by extrapolating a linear line
Description: As mentioned before, surface tension reduction depends on the replacement of water molecules at the interface by surfactant molecules, therefore the effectiveness of a surfactant in reducing interfacial surface tension should reflect the saturated concentration of surfactant at the interface relative to that in bulk liquid phase. During this process the surface tension of water steadily decreases as bulk phase surfactant concentration increases. This will continue until the concentration reaches the critical micelle concentration (CMC), above which the surface tension remains nearly unchanged and the interface is saturated with surfactant. The surface tension at the CMC is therefore very close to the minimum interfacial tension or maximum surface pressure that the system can achieve. The surface pressure at this point, IIcmc, is a suitable measure of the effectiveness of a surfactant in reducing surface tension and is given as:
IIcmc =20+2.3nRT(Γmax) log[CMC/C20 ]
n=1 which represents the number of ions whose surface concentration changes with the change in liquid phase surfactant concentration.
CMC/C20 =is the ratio of the critical micelie concentration to the bulk phase surfactant concentration necessary to reduce the surface tension of water by 20 dyn/cm.

[7] = cited from earlier work; remark: listed apart in the source
[8] = 5.0% in […] sodium lauryl sulfate
[9] = 3.0% in […] sodium lauryl sulfate

Row | Appearance [1, 8] | Krafft Point (0.1%) (Krafft point) | Foam Height Initial [2] | Foam Height Final [2] | Compound | Krafft Point (1.0%) (Krafft point) | further results
1 | Precipitate | 53 °C | 0 mm | 0 mm | CCCCCCCCCNC(=O)[C@H](O)[C@@H](O)[C@H](O)[C@H](O)CO [C9 D-Gluconamide] | – | Appearance ([1]; 4.0% in […] sodium lauryl sulfate): Precipitate; Appearance (Time): time of precipitate ([1]; 4.0%): 2 weeks; Appearance (Time): time of precipitate ([1]; 5.0%): 2 weeks
2 | Precipitate | 61 °C | 200 mm | 110 mm | CCCCCCCCCCCCOCCCNC(=O)[C@H](O)[C@@H](O)[C@H](O)[C@H](O)CO [C12 Oxypropyl D-Gluconamide] | – | Appearance [1, 9]: Clear; Appearance (Time): time of precipitate ([1]; 5.0%): 5 months; Viscosity Increase ([3]; 3.0% thickener): 120 x; Viscosity ([3]; 3.0% thickener): 1800 Centipoise; Viscosity Increase ([3]; 5.0% thickener): 1373 x; Viscosity ([3]; 5.0% thickener): 20600 Centipoise
3 | Precipitate | – | – | – | coco D-gluconamide | – | Appearance [1, 9]: Precipitate; Appearance (Time): time of precipitate ([1]; 3.0%): 1 days; Appearance (Time): time of precipitate ([1]; 5.0%): 0.083 days
4 | Clear | 18 °C | 186 mm | 182 mm | cocoaminopropyl D-gluconamide | – | Appearance [1, 9]: Clear
5 | – | > 100 °C | – | – | CCCCCCCCCCCCNC(=O)[C@@H](O)[C@H](O)[C@H](O)[C@@H](O)CO [C12 L-Galactonamide] | – | Solubility [2]: Insoluble
6 | Precipitate | 75 °C | – | 6 mm | CCCCCCCCCCNC(=O)[C@H](O)[C@@H](O)[C@H](O)[C@H](O)CO [C10 D-Gluconamide] | – | Appearance [1, 9]: Precipitate
7 | – | < 0 °C | – | 84 mm | CCCCCCCC/C=C\CCCCCCCCNCCCNC(=O)[C@H](O)[C@@H](O)[C@H](O)[C@H](O)CO [Oleylaminopropyl D-Gluconamide, oleylaminopropyl D-gluconamide] | – | –
8 | – | – | – | 140 mm | CCCCCCCCCCCCCCNC(=O)[C@H](O)[C@@H](O)[C@H](O[C@H]1O[C@H](CO)[C@@H](O)[C@H](O)[C@H]1O)[C@H](O)CO [C14 D-Maltobionamide] | 46 °C | –

Further lines, the compound ahead of its results:

Row | Compound | Appearance [1, 8] | Krafft Point (0.1%) (Krafft point) | Foam Height Initial [2] | Foam Height Final [2] | Krafft Point (1.0%) (Krafft point) | further results
9 | CCCCCCCCCCCCOCCOCCOCCO [Dodecyltri(oxyethylene) Ether] | – | – | – | – | – | Γmax (surface excess concentration at surface saturation) [4]: 3.83 × 10^-10 mole/cm^2; Πcmc (surface pressure) ([5]; 25 °C): 44.1 dyn/cm; Πcmc (surface pressure) ([5]; 40 °C): 43.1 dyn/cm; Πcmc (surface pressure) [6]: 41.4 dyn/cm; Γmax (surface excess concentration at surface saturation) ([7]; 25 °C): 3.98 × 10^-10 mole/cm^2; Γmax (surface excess concentration at surface saturation) ([7]; 40 °C): 3.90 × 10^-10 mole/cm^2
10 | CCCCCCCCNC(=O)[C@H](O)[C@@H](O)[C@H](O)[C@H](O)CO [C8 D-Gluconamide] | – | 12 °C | 0 mm | 0 mm | – | –
11 | CCCCCCCCCCCCCCCCNC(=O)[C@H](O)[C@@H](O)[C@H](O)[C@H](O)CO [C16 D-Gluconamide] | – | > 100 °C | – | – | – | Solubility [2]: Insoluble
12 | CCCCCCCCCCCCOCCCNC(=O)[C@H](O)[C@@H](O)[C@H](O[C@@H]1O[C@H](CO)[C@H](O)[C@H](O)[C@H]1O)[C@H](O)CO [C12 Oxypropyl D-Lactobionamide, dodecyloxypropyl D-lactobionamide] | – | – | – | – | < 0 °C | Viscosity Increase ([3]; 3.0% thickener): 23 x; Viscosity ([3]; 3.0% thickener): 340 Centipoise; Viscosity Increase ([3]; 5.0% thickener): 97 x; Viscosity ([3]; 5.0% thickener): 1455 Centipoise
13 | cocoaminopropyl D-lactobionamide | – | – | 171 mm | 168 mm | < 0 °C | –
14 | octyl/decyloxypropyl D-lactobionamide [C8 /C10 Oxypropyl D-Lactobionamide] | Clear | – | 168 mm | 158 mm | < 0 °C | Appearance [1, 9]: Clear
15 | CCCCCCCCCCCCNC(=O)[C@H](O)[C@H](O)[C@@H](O)[C@@H](O)CO [C12 L-Mannonamide] | – | > 100 °C | – | – | – | Solubility [2]: Insoluble
16 | CCCCCCCCCNC(=O)[C@H](O)[C@@H](O)[C@H](O[C@@H]1O[C@H](CO)[C@H](O)[C@H](O)[C@H]1O)[C@H](O)CO [C9 D-Lactobionamide, nonyl D-lactobionamide] | – | – | 0 mm | 0 mm | 42 °C | –
17 | CCCCCCCCCCCCCCNC(=O)[C@H](O)[C@@H](O)[C@H](O[C@@H]1O[C@H](CO)[C@H](O)[C@H](O)[C@H]1O)[C@H](O)CO [C14 D-Lactobionamide] | – | – | – | 59 mm | 18 °C | –
18 | CCCCCCCCCCCCCCCCNC(=O)[C@H](O)[C@@H](O)[C@H](O[C@@H]1O[C@H](CO)[C@H](O)[C@H](O)[C@H]1O)[C@H](O)CO [C16 D-Lactobionamide] | – | – | 95 mm | 95 mm | 64 °C | –
19 | CCCCCCCCCCCCCCNC(=O)[C@H](O)[C@@H](O)[C@H](O)[C@H](O)CO [C14 D-Gluconamide] | – | > 100 °C | – | – | – | Solubility [2]: Insoluble
20 | dodecyl to pentadecyloxypropylaminopropyl D-lactobionamide | – | – | 173 mm | 169 mm | < 0 °C | –
